In brackets after ≈: the same amount, converted by molar mass. Like-named read-outs stand apart in the source and are kept apart here.
Legend:
Kuramochi cells = test: Cell proliferation inhibition experiment using Kuramochi cells; assay type: cell-based; conditions: 144 h, cultured for 6 days, CellTiter-Glo
How it was run: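 Ovarian cancer Kuramochi cells in RPMI-1640 with 10% FBS, seeded at 500 cells/well and dosed one day later at 0.1% final DMSO. After 6 days of culture at 37°C, 5% CO2, viability read by CellTiter-Glo luminescence.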

G-401 xenograft [1] = test: Drug efficacy evaluation by intravenous administration using G-401 xenograft mice model; assay type: in vivo; conditions: for antitumor effect (in words): G-401 xenograft model, intravenous administration; for T/C: intravenous (tail vein), 14 days
Method: G-401 cells (ATCC) were intradermally transplanted into 4-7-week-old BALB/cAnNCrj-nu/nu mice (CAnN.Cg-Foxn1/CrlCrlj, Jackson Laboratory Japan) at 5×10^5 cells/mouse. After confirming the engraftment of G-401 cells 10-40 days after transplantation, the test compound suspended in a solvent such as 10 mmol/L glycine buffer solution (pH 2.0) was administered via the tail vein at least once a week at a dose of 0.015-20 mg/kg. The tumor volume was measured over time from the start of administration, and the effect of tumor volume reduction by administration of the test compound was evaluated. The tumor volume can be calculated from the following equation using the minor axis and major axis of the tumor measured with an electronic caliper (Mitutoyo).
A control administration group administered with only a solvent such as 10 mmol/L glycine buffer solution (pH 2.0) and a test compound administration group were compared, and the antitumor effect was evaluated by calculating T/C from the following equation.

RMGI cells = test: Cell proliferation inhibition experiment using RMGI cells; assay type: cell-based; conditions: Homo sapiens, RMG-I, 144 h, cultured for 6 days, CellTiter-Glo
Method: RMGI cells (derived from ovarian cancer) were obtained from JCRB cell bank. RMGI cells were cultured in Ham's F12 medium containing 10% fetal bovine serum and 1% penicillin/streptomycin under conditions of 37° C. and 5% CO2.
200 cells per well were seeded in a 384-well plate. One day after seeding, Examples 3, 7, 9, 10, 11, 20, and 23 to 25 were added so that the final concentration of DMSO was 0.1%, and the cells were cultured for 6 days. After the culture was completed, the cell viability was measured using CellTiter-Glo Luminescent Cell Viability Assay (Promega, G7570).

[2] = Pharmacokinetic study in mice; assay type: in vivo; conditions: for AUC / clearance / half-life / Vd / Cmax: female, BALB/c (BALB/cAnN CrlCrlj), mouse, plasma; for Vd: read-out: Vdss
How it was run: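 Female 7-week-old BALB/c mice were dosed 1 mg/kg intravenously (50% PEG, 0.01 mol/L HCl) or 10 mg/kg orally (0.5% methylcellulose). Plasma was sampled from 5 or 15 min up to 24 hr, and concentrations were quantified by LC-MS against an internal-standard calibration curve.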

G-401 xenograft [3] = test: Drug efficacy evaluation by oral administration using G-401 xenograft model mice; assay type: in vivo; conditions: for antitumor effect (in words): G-401 xenograft model, oral administration; for T/C: oral twice a day
Method: G-401 cells (ATCC) were intradermally transplanted into 4-7-week-old BALB/cAnNCrj-nu/nu mice (CAnN.Cg-Foxn1/CrlCrlj, Jackson Laboratory Japan) at 5×10^5 cells/mouse. After confirming the engraftment of G-401 cells 10-40 days after transplantation, the test compound suspended in a solvent such as 0.5% methylcellulose solution was orally administered twice a day at a dose of 1-100 mg/kg. The tumor volume was measured over time from the start of administration, and the effect of tumor volume reduction by administration of the test compound was evaluated. The tumor volume can be calculated from the following equation using the minor axis and major axis of the tumor measured with an electronic caliper (Mitutoyo).
A control administration group administered with only a solvent such as 0.5% methylcellulose solution and a test compound administration group were compared, and the antitumor effect was evaluated by calculating T/C from the following equation.

Solubility test = assay type: physicochemical; conditions: aqueous buffer, thermodynamic from solid, 5° C., overnight
Method: The solubility was measured for Examples 7, 10, 20, 23, 24, and 30 to 34, Comparative Example 1, and Comparative Example 2. The test compound was added to 10 mmol/L glycine buffer (pH 2.0) and 10 mmol/L citrate buffer (pH 3.0), and the mixture was stored in a thermostatic chamber at 5° C. After standing overnight, the mixture was filtered through a membrane filter, and the concentration of the filtrate was measured by HPLC.

hSERT = hSERT (Homo sapiens (Human), UniProt P31645); test: Serotonin receptor inhibitory activity evaluation (binding assay, HEK293/hSERT membranes); conditions: HEK293/hSERT membrane preparation, [3H]Paroxetin
Method: The binding evaluation assay was outsourced to Eurofins. Specifically, HEK293/hSERT cells were homogenized in a buffer consisting of 100 mmol/L NaCl, 1 μmol/L Leupeptin, 10 μmol/L PMSF, and 50 mmol/L Tris-HCl (pH7.4). The membrane pellet obtained by centrifugation was resuspended in an incubation buffer consisting of 50 mmol/L Tris-HCl (pH 7.4), 120 mmol/L NaCl, and 5 mmol/L KCl to prepare a membrane preparation. The test compound (1-10 μmol/L DMSO solution), the membrane preparation, and 0.4 nmol/L [^3H]Paroxetin were mixed and incubated at 25° C. for 60 minutes. The cell membrane-[^3H]Paroxetin complex was bound to a GF/B filter mat by vacuum filtration and washed with 50 mmol/L Tris-HCl (pH 7.4). The effect on the receptor was assessed by measuring radioactivity using a scintillation counter.

[4] = 10 mmol/L citrate buffer (pH 3.0), read-out: Solubility in pH 3.0 buffer
[5] = 10 mmol/L glycine buffer (pH 2.0), read-out: Solubility in pH 2.0 buffer

Chain of hSERT (P31645 whole entry): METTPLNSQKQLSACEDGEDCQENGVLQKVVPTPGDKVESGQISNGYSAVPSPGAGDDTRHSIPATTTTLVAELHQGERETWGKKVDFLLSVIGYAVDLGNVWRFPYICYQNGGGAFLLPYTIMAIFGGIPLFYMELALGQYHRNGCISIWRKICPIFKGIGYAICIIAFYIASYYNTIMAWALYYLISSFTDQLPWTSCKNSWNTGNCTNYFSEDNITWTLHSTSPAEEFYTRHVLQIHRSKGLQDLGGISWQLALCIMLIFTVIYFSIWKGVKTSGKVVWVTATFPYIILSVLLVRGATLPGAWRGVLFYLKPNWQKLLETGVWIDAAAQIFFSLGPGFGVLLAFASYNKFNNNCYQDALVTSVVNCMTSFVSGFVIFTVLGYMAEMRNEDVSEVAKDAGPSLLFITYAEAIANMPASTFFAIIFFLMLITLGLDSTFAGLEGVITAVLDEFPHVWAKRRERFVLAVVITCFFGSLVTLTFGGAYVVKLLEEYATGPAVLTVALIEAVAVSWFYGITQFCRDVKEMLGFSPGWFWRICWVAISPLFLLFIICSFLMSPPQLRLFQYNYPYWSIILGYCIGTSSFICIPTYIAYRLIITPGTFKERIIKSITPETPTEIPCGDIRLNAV

Row | SMILES | AUC ([2]; intravenous, 1 mg/kg) [ng·h/mL] | clearance ([2]; intravenous, 1 mg/kg) [mL/min/kg] | half-life ([2]; intravenous, 1 mg/kg) [h] | Vd ([2]; intravenous, 1 mg/kg) [L/kg] | AUC ([2]; oral, 10 mg/kg) [ng·h/mL] | Cmax ([2]; oral, 10 mg/kg) [ng/mL] | BA ([2]; oral, 10 mg/kg) [%] | solubility (Solubility test; [4]) [µg/mL] | solubility (Solubility test; [5]) [µg/mL] | inhibition at 10 µM (hSERT) [%] | IC50 (Kuramochi cells) [nM] | antitumor effect (in words) (G-401 xenograft [1]) | T/C (G-401 xenograft [1]; 20 mg/kg) [%] | IC50 (RMGI cells) [nM] | antitumor effect (in words) (G-401 xenograft [3]) | T/C (G-401 xenograft [1]; 10 mg/kg) [%] | T/C (G-401 xenograft [3]; 20 mg/kg, 21 days) [%] | further results
1 | CN1CC(N(Cc2ccc(F)cc2)C(=O)CN2C(=O)N[C@]3(C[C@@H](F)c4cc(-c5cnn(C)c5)ccc43)C2=O)(C(F)(F)F)C1 [Example 10, 2-[(1′S,3′R)-3′-fluoro-5′-(1-methyl-1H-pyrazol-4-yl)-2,5-dioxo-2′,3′-dihydrospiro[imidazolidine-4,1′-inden]-1-yl]-N-[(4-fluorophenyl)methyl]-N-[1-methyl-3-(trifluoromethyl)azetidin-3-yl]acetamide] | 491 | 33.5 | 1.16 | 1.8 | 3480 | 3240 | 70.8 | 1600 (≈ 2.66 mM) | > 10000 | -5 | 66 | strong antitumor effects | – | 6 | strong antitumor effects | 73 | – | T/C (G-401 xenograft [3]; 3 mg/kg, 21 days): 53%; T/C (G-401 xenograft [3]; 10 mg/kg, 21 days): 102%
2 | CN1CC(N(Cc2ccc(F)cn2)C(=O)CN2C(=O)N[C@]3(C[C@@H](F)c4cc(-c5cnn(C)c5)ccc43)C2=O)(C(F)(F)F)C1 [Example 20, 2-[(1′S,3′R)-3′-fluoro-5′-(1-methyl-1H-pyrazol-4-yl)-2,5-dioxo-2′,3′-dihydrospiro[imidazolidine-4,1′-inden]-1-yl]-N-[(5-fluoropyridin-2-yl)methyl]-N-[1-methyl-3-(trifluoromethyl)azetidin-3-yl]acetamide] | 528 | 31.1 | 1.34 | 1.6 | 1520 | 1340 | 28.8 | 8600 (≈ 14.2 mM) | > 10000 | -1 | 320 | strong antitumor effects | – | 43 | strong antitumor effects | 53 | 80 | T/C (G-401 xenograft [3]; 30 mg/kg, 21 days): 89%
3 | CN1CC(N(Cc2ccc(F)cn2)C(=O)CN2C(=O)N[C@]3(C[C@@H](F)c4cc(-c5cnn(C6COC6)c5)ccc43)C2=O)(C(F)(F)F)C1 [Example 24, 2-{(1′S,3′R)-3′-fluoro-5′-[1-(oxetan-3-yl)-1H-pyrazol-4-yl]-2,5-dioxo-2′,3′-dihydrospiro[imidazolidine-4,1′-inden]-1-yl}-N-[(5-fluoropyridin-2-yl)methyl]-N-[1-methyl-3-(trifluoromethyl)azetidin-3-yl]acetamide] | 313 | 53 | 1.15 | 2.1 | 1470 | 1470 | 47.0 | > 10000 | > 10000 | 15 | 399 | strong antitumor effects | 44 | 37 | – | – | – | –

Continued, in another order:

Row | AUC ([2]; intravenous, 1 mg/kg) [ng·h/mL] | clearance ([2]; intravenous, 1 mg/kg) [mL/min/kg] | half-life ([2]; intravenous, 1 mg/kg) [h] | Vd ([2]; intravenous, 1 mg/kg) [L/kg] | AUC ([2]; oral, 10 mg/kg) [ng·h/mL] | Cmax ([2]; oral, 10 mg/kg) [ng/mL] | BA ([2]; oral, 10 mg/kg) [%] | solubility (Solubility test; [4]) [µg/mL] | solubility (Solubility test; [5]) [µg/mL] | inhibition at 10 µM (hSERT) [%] | SMILES | IC50 (Kuramochi cells) [nM] | antitumor effect (in words) (G-401 xenograft [1]) | T/C (G-401 xenograft [1]; 20 mg/kg) [%] | IC50 (RMGI cells) [nM] | antitumor effect (in words) (G-401 xenograft [3]) | T/C (G-401 xenograft [1]; 10 mg/kg) [%] | T/C (G-401 xenograft [3]; 20 mg/kg, 21 days) [%] | further results
4 | 819 | 19.9 | 1.41 | 1.3 | 8240 | 6140 | 100.6 | 4600 (≈ 6.69 mM) | > 10000 | -1 | O=C1N[C@]2(C[C@@H](F)c3cc(-c4cnn(C5CN(C6COC6)C5)c4)ccc32)C(=O)N1CC(=O)N(Cc1ccc(F)cn1)C1(C(F)(F)F)COC1 [Example 7, 2-[(1′S,3′R)-3′-fluoro-5′-{1-[1-(oxetan-3-yl)azetidin-3-yl]-1H-pyrazol-4-yl}-2,5-dioxo-2′,3′-dihydrospiro[imidazolidine-4,1′-inden]-1-yl]-N-[(5-fluoropyridin-2-yl)methyl]-N-[3-(trifluoromethyl)oxetan-3-yl]acetamide] | 298 | strong antitumor effects | 40 | 35 | strong antitumor effects | – | – | T/C (G-401 xenograft [3]; 10 mg/kg, 34 days): 31%; T/C (G-401 xenograft [3]; 30 mg/kg, 34 days): 80%
5 | 1690 | 9.8 | 4.1 | 1.8 | 8400 | 8140 | 49.7 | 8600 (≈ 12 mM) | > 10000 | 3 | O=C1N[C@]2(C[C@@H](F)c3cc(-c4cnn(C5CCN(C6COC6)CC5)c4)ccc32)C(=O)N1CC(=O)N(Cc1ccc(F)cn1)C1(C(F)(F)F)COC1 [Example 23, 2-[(1′S,3′R)-3′-fluoro-5′-{1-[1-(oxetan-3-yl)piperidin-4-yl]-1H-pyrazol-4-yl}-2,5-dioxo-2′,3′-dihydrospiro[imidazolidine-4,1′-inden]-1-yl]-N-[(5-fluoropyridin-2-yl)methyl]-N-[3-(trifluoromethyl)oxetan-3-yl]acetamide] | 591 | strong antitumor effects | 54 | 54 | strong antitumor effects | – | 81 | –
